Reference: PMC6269910 (Molecules, 2013)

Test system: carrageenan-induced hind paw edema
Test: Carrageenan-induced hind paw edema model
Assay type: in vivo, mice
Method: Locally bred balb/c mice of both sexes (30-35 g) were purchased from the animal breeding laboratories of Inonu University ([…], Turkey). The animals were fed a standard pellet diet and water ad libitum in a temperature-controlled room. On the day before the treatments, food was withdrawn, but the animals were allowed free access of water. The allocation of animals to different groups was randomized, and the experiments were carried out under blind conditions. Mice used in the present study were cared for in accordance with the directory of the Inonu University Animal Care Unit, which applies the guidelines of the National Institutes of Health on laboratory animal welfare. Procedures involving animals and their care were conducted in conformity with international laws and policies and animal studies accepted by Inonu University Ethical Council (2011/A17). Test samples, suspended in a mixture of distilled water and 0.5% sodium carboxymethyl cellulose (CMC), were given orally to the animals. The control group animals received the same experimental handling as those of the test groups, except that the drug treatment was replaced with appropriate volumes of the dosing vehicle. […] For the preliminary activity screening, each test group was composed of four mice. […] Because of the daily changing circumstance, we used another control group for each experiment. For the determination of the effects on carrageenan-induced paw oedema, the modified method of Kasahara et al. was employed. One hour after the oral administration of either test sample or dosing vehicle, each mouse was injected with a freshly prepared (0.5 mg/25 μL) suspension of carrageenan (Sigma, St. Louis, MO, USA) in physiological saline (154 mM NaCl). The subplantar tissue of the right hind paw was the injection site for all mice. The contralateral paw (left hind paw) was injected with 25 μL saline solution as the internal control. […] The difference in footpad thickness between the right and left foot indicated the degree of inflammation for each mouse. The change in paw volume, either increase or decrease, was calculated and compared with the control group (dosing vehicle) and analyzed using statistical methods.

CCNC(=S)NS(=O)(=O)c1ccc(-n2nc(C(F)(F)F)cc2-c2ccc(C)cc2)cc1 [Compound 1a, N-(Ethylcarbamothioyl)-4-[5-(4-methylphenyl)-3-(trifluoromethyl)-1H-pyrazol-1-yl] benzenesulfonamide]
Swelling in thickness ± SEM (50 mg/kg per os, 90 min): 70.0 ± 6.5 × 10^−2 mm | percent inhibitory activity (50 mg/kg per os, 90 min): 2.7% | Swelling in thickness ± SEM (50 mg/kg per os, 180 min): 72.0 ± 5.1 × 10^−2 mm | percent inhibitory activity (50 mg/kg per os, 180 min): 21.7% | Swelling in thickness ± SEM (50 mg/kg per os, 270 min): 90.0 ± 9.3 × 10^−2 mm | percent inhibitory activity (50 mg/kg per os, 270 min): 25.6% | Swelling in thickness ± SEM (50 mg/kg per os, 360 min): 100.0 ± 6.5 × 10^−2 mm | percent inhibitory activity (50 mg/kg per os, 360 min): 22.4% | Swelling in thickness ± SEM (100 mg/kg per os, 90 min): 58.1 ± 6.6 × 10^−2 mm | percent inhibitory activity (100 mg/kg per os, 90 min): 19.4% | Swelling in thickness ± SEM (100 mg/kg per os, 180 min): 72.9 ± 11.9 × 10^−2 mm | percent inhibitory activity (100 mg/kg per os, 180 min): 19.7% | Swelling in thickness ± SEM (100 mg/kg per os, 270 min): 72.7 ± 16.7 × 10^−2 mm | percent inhibitory activity (100 mg/kg per os, 270 min): 39.5% | Swelling in thickness ± SEM (100 mg/kg per os, 360 min): 77.9 ± 11.7 × 10^−2 mm | percent inhibitory activity (100 mg/kg per os, 360 min): 39.7% | Swelling in thickness ± SEM (200 mg/kg per os, 90 min): 54.6 ± 7.9 × 10^−2 mm | percent inhibitory activity (200 mg/kg per os, 90 min): 25.0% | Swelling in thickness ± SEM (200 mg/kg per os, 180 min): 74.2 ± 8.2 × 10^−2 mm | percent inhibitory activity (200 mg/kg per os, 180 min): 19.3% | Swelling in thickness ± SEM (200 mg/kg per os, 270 min): 117.5 ± 9.8 × 10^−2 mm | percent inhibitory activity (200 mg/kg per os, 270 min): 2.9% | Swelling in thickness ± SEM (200 mg/kg per os, 360 min): 97.4 ± 5.6 × 10^−2 mm | percent inhibitory activity (200 mg/kg per os, 360 min): 24.5% | anti-inflammatory activity (in words) (all doses, all measurement intervals): moderate-to-good
